Patent publication US10280150B2 (FORMA TM2, Inc., priority 2014, dated 2019)

Experiments:
[1] = target: IDH1-R132H recombinant protein (Homo sapiens (Human), UniProt O75874, R132H); assay: IDH1-R132H enzymatic assay (inhibition of NADPH consumption, diaphorase/resazurin readout); assay type: biochemical; conditions: read-out: Enzyme IDH1 R132H IC50 (Range)
Protocol: (§1) Assays were performed in a 384-well black plate. An aliquot of 250 nL of compound was incubated with 10 μL of 30 nM IDH1-R132H or 10 nM IDH1-R132C recombinant protein in assay buffer (50 mM Tris pH=7.5, 150 mM NaCl, 5 mM MgCl2, 0.1% (w/v) Bovine Serum Albumin, and 0.01% Triton X-100) in each well at 25° C. for 15 minutes. After the plate was centrifuged briefly, an aliquot of 10 μL of 2 mM α-ketoglutarate and 20 μM NADPH solution prepared in assay buffer was then added to each well and the reaction was maintained at 25° C. for 45 minutes. An aliquot of 10 μL of diaphorase solution (0.15 U/mL diaphorase and 30 µM Resazurin in assay buffer) was added to each well. The plate was maintained at 25° C. for 15 minutes and then read on a plate reader with excitation and emission wavelengths at 535 nm and 590 nm, respectively. The IC50 of a given compound was calculated by fitting the dose response curve of inhibition of NADPH consumption at a given concentration with the four parameter logistic equation.

[2] = target: IDH1-R132C recombinant protein (Homo sapiens (Human), UniProt O75874, R132C); assay: IDH1-R132C enzymatic assay (inhibition of NADPH consumption, diaphorase/resazurin readout); assay type: biochemical; conditions: read-out: Enzyme IDH1 R132C IC50 (Range)
IDH1-R132C recombinant protein, sequence (O75874 whole entry R132C): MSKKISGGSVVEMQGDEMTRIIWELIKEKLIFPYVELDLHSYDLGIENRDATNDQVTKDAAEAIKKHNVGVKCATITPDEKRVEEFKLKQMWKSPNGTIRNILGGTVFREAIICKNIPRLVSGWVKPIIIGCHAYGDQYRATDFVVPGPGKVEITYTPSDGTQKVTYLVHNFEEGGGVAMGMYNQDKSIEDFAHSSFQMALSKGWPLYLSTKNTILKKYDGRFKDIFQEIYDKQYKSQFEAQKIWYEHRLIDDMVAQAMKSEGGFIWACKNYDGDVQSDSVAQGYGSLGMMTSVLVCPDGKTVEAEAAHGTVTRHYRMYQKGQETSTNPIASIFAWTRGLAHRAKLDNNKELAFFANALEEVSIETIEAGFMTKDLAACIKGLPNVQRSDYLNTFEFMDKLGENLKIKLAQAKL
Protocol: as §1

IDH1-R132H recombinant protein, sequence (O75874 whole entry R132H): as the sequence (O75874 whole entry R132C) above, with C132H counted along it

Row | Structure (SMILES) | IC50 [1] [nM] | IC50 [2] [nM]
1 | COc1nc(N[C@@H](C)c2cc3cc(Cl)ccc3n(C)c2=O)ncc1C#N [Compound I-41, (S)-2-((1-(6-chloro-1-methyl-2-oxo-1,2-dihydroquinolin-3-yl)ethyl)amino)-4-methoxypyrimidine-5-carbonitrile] | 1000 to 10000 | 1000 to 10000
2 | C[C@H](Nc1nccc(-c2c[nH]nc2C(F)(F)F)n1)c1cc2cc(Cl)ccc2[nH]c1=O [Compound I-86] | 1000 to 10000 | > 10000
3 | C[C@H](Nc1nccc(-c2coc3ccccc23)n1)c1cc2cc(Cl)ccc2[nH]c1=O [Compound I-89] | 1000 to 10000 | 1000 to 10000
4 | COc1ncccc1-c1ccnc(N[C@@H](C)c2cc3cc(Cl)ccc3[nH]c2=O)n1 [Compound I-93] | 1000 to 10000 | > 10000
5 | COc1cnccc1-c1ccnc(N[C@@H](C)c2cc3cc(Cl)ccc3[nH]c2=O)n1 [Compound I-97] | 1000 to 10000 | 1000 to 10000
6 | C[C@H](Nc1nccc(-c2cccc3c2OCC3)n1)c1cc2cc(Cl)ccc2[nH]c1=O [Compound I-98] | > 10000 | > 10000
7 | COc1ccccc1-c1ccnc(N[C@@H](C)c2cc3cc(Cl)ccc3[nH]c2=O)n1 [Compound I-102] | 1000 to 10000 | 1000 to 10000
8 | CC(C)[C@H]1COCCN1c1ccnc(N[C@@H](C)c2cc3cc(Cl)ccc3[nH]c2=O)n1 [Compound I-104, 6-chloro-3-((S)-1-(4-((S)-3-isopropylmorpholino)pyrimidin-2-ylamino)ethyl) quinolin-2(1H)-one] | 100 to 1000 | 1000 to 10000
9 | CC(c1ccnc(N[C@@H](C)c2cc3cc(Cl)ccc3[nH]c2=O)n1)S(C)(=O)=O (stereo partly drawn) [Compound I-135, 6-Chloro-3-((1S)-1-((4-(1-(methylsulfonyl)ethyl)pyrimidin-2-yl)amino)ethyl) quinolin-2(1H)-one] | 1000 to 10000 | > 10000
10 | CC(=O)N(Cc1ccnc(N[C@@H](C)c2cc3cc(Cl)ccc3[nH]c2=O)n1)C1CC1 [Compound I-137, (S)—N-((2-((1-(6-chloro-2-oxo-1,2-dihydroquinolin-3-yl)ethyl)amino)pyrimidin-4-yl)methyl)-N-cyclopropylacetamide] | 1000 to 10000 | –
11 | C[C@H](Nc1nccc(N)n1)c1cc2cc(Cl)ccc2[nH]c1=O [Compound I-139] | 1000 to 10000 | –
12 | C[C@@H](Nc1nccc(N2CCCOC2=O)n1)c1cc2cc(Cl)ccc2[nH]c1=O [Compound I-140] | > 10000 | –
13 | COc1cc2[nH]c(=O)c([C@@H](C)Nc3nccc(N4CCOC4=O)n3)cc2cc1Cl [Compound I-148] | > 10000 | –
14 | COc1cc(OC)nc(NCc2cc3cc(Cl)ccc3[nH]c2=O)n1 [Compound I-163, 6-Chloro-3-(((4,6-dimethoxypyrimidin-2-yl)amino)methyl)quinolin-2(1H)-one] | 1000 to 10000 | –
15 | CC(C)N(c1ccnc(NCc2cc3ccccc3[nH]c2=O)n1)S(C)(=O)=O [Compound I-164, N-isopropyl-N-(2-(((2-oxo-1,2-dihydroquinolin-3-yl)methyl)amino)pyrimidin-4-yl)methanesulfonamide] | > 10000 | –
16 | CC(C)N(c1ccnc(NCc2cc3ccc(F)cc3[nH]c2=O)n1)S(C)(=O)=O [Compound I-165] | 1000 to 10000 | –
17 | Cc1ccc2[nH]c(=O)c(CNc3nccc(N(C(C)C)S(C)(=O)=O)n3)cc2c1 [Compound I-166] | 1000 to 10000 | –
18 | O=C1OCCN1c1ccnc(NC(CF)c2cc3cc(Cl)ccc3[nH]c2=O)n1 (stereo not shown) [Compound I-171] | > 10000 | –

Further lines, results first:

Row | IC50 [1] [nM] | IC50 [2] [nM] | Structure (SMILES)
19 | < 100 | < 100 | C[C@H](Nc1nccc(N(CC2CC2)S(C)(=O)=O)n1)c1cc2cc(Cl)ccc2[nH]c1=O [Compound I-2, (S)—N-(2-((1-(6-Chloro-2-oxo-1,2-dihydroquinolin-3-yl)ethyl)amino)pyrimidin-4-yl)-N-(cyclopropylmethyl)methanesulfonamide]
20 | 100 to 1000 | 100 to 1000 | C[C@H](Nc1nccc(N(C2CCCOC2)S(C)(=O)=O)n1)c1cc2cc(Cl)ccc2[nH]c1=O (stereo partly drawn) [Compound I-3, N-(2-(((S)-1-(6-chloro-2-oxo-1,2-dihydroquinolin-3-yl)ethyl)amino)pyrimidin-4-yl)-N-(tetrahydro-2H-pyran-3-yl)methanesulfonamide]
21 | < 100 | < 100 | CC(C)N(c1ccnc(N[C@@H](C)c2cc3cc(Cl)ccc3[nH]c2=O)n1)S(=O)(=O)c1cccnc1 [Compound I-4, (S)—N-(2-((1-(6-Chloro-2-oxo-1,2-dihydroquinolin-3-yl)ethyl)amino)pyrimidin-4-yl)-N-isopropylpyridine-3-sulfonamide]
22 | < 100 | 100 to 1000 | CC(C)CS(=O)(=O)N(c1ccnc(N[C@@H](C)c2cc3cc(Cl)ccc3[nH]c2=O)n1)C(C)C [Compound I-5, (S)—N-(2-(1-(6-Chloro-2-oxo-1,2-dihydroquinolin-3-yl)ethylamino)pyrimidin-4-yl)-N-isopropyl-2-methylpropane-1-sulfonamide]
23 | 100 to 1000 | 1000 to 10000 | C[C@H](Nc1nccc(NC(C)(C)C)n1)c1cc2cc(Cl)ccc2[nH]c1=O [Compound I-7]
24 | < 100 | < 100 | CC(C)CN(c1ccnc(N[C@@H](C)c2cc3cc(Cl)ccc3[nH]c2=O)n1)S(C)(=O)=O [Compound I-8, (S)—N-(2-(1-(6-Chloro-2-oxo-1,2-dihydroquinolin-3-yl)ethylamino)pyrimidin-4-yl)-N-isobutylmethanesulfonamide]
25 | < 100 | 100 to 1000 | CC(C)N(c1ccnc(N[C@@H](C)c2cc3cc(Cl)ccc3[nH]c2=O)n1)S(C)(=O)=O [Compound I-10, (S)—N-(2-(1-(6-Chloro-2-oxo-1,2-dihydroquinolin-3-yl)ethylamino)pyrimidin-4-yl)-N-isopropylmethanesulfonamide]
26 | < 100 | < 100 | CC(C)N(c1ccnc(N[C@@H](C)c2cc3cc(Cl)ccc3[nH]c2=O)n1)S(=O)(=O)CC1CC1 [Compound I-11, (S)—N-(2-((1-(6-Chloro-2-oxo-1,2-dihydroquinolin-3-yl)ethyl)amino)pyrimidin-4-yl)-1-cyclopropyl-N-isopropylmethanesulfonamide]
27 | 100 to 1000 | 1000 to 10000 | C[C@H](Nc1nccc(N(C2CC2)S(C)(=O)=O)n1)c1cc2cc(Cl)ccc2[nH]c1=O [Compound I-14]
28 | 100 to 1000 | 100 to 1000 | CC(C)CS(=O)(=O)N(C)c1ccnc(N[C@@H](C)c2cc3cc(Cl)ccc3[nH]c2=O)n1 [Compound I-15]
29 | 100 to 1000 | 1000 to 10000 | C[C@H](Nc1nccc(N(CCC2CCOCC2)S(C)(=O)=O)n1)c1cc2cc(Cl)ccc2[nH]c1=O [Compound I-16]
30 | 100 to 1000 | 1000 to 10000 | CC(C)N(c1ccnc(N[C@@H](C)c2cc3cc(Cl)ccc3[nH]c2=O)n1)S(=O)(=O)c1ccc2c(c1)oc(=O)n2C [Compound I-21]
31 | 100 to 1000 | 1000 to 10000 | CC(C)CN(C(=O)C1CC1)c1ccnc(N[C@@H](C)c2cc3cc(Cl)ccc3[nH]c2=O)n1 [Compound I-35]
32 | 1000 to 10000 | 1000 to 10000 | C[C@@H](Nc1nccc(N2CCOC2=O)n1)c1cc2cc(Cl)ccc2[nH]c1=O [Compound I-45]
33 | < 100 | < 100 | CC(C)[C@H]1COC(=O)N1c1ccnc(NCc2cc3cc(Cl)ccc3[nH]c2=O)n1 [Compound I-46, (S)-3-(2-(((6-Chloro-2-oxo-1,2-dihydroquinolin-3-yl)methyl)amino)pyrimidin-4-yl)-4-isopropyloxazolidin-2-one]
34 | < 100 | 100 to 1000 | CC(Nc1nccc(N2CCOC2=O)n1)c1cc2cc(Cl)ccc2[nH]c1=O (stereo not shown) [Compound I-48]
35 | 1000 to 10000 | > 10000 | Cc1nn(C)c(C)c1-c1ccnc(N[C@@H](C)c2cc3cc(Cl)ccc3[nH]c2=O)n1 [Compound I-84]
36 | 100 to 1000 | 1000 to 10000 | C[C@H](Nc1nccc(-c2cnn(C)c2)n1)c1cc2cc(Cl)ccc2[nH]c1=O [Compound I-91]
37 | 100 to 1000 | 100 to 1000 | COc1ccncc1-c1ccnc(N[C@@H](C)c2cc3cc(Cl)ccc3[nH]c2=O)n1 [Compound I-99]
38 | 100 to 1000 | 1000 to 10000 | COCc1ccccc1-c1ccnc(N[C@@H](C)c2cc3cc(Cl)ccc3[nH]c2=O)n1 [Compound I-100]
39 | < 100 | 100 to 1000 | C[C@H](Nc1nccc([S+](C)[O-])n1)c1cc2cc(Cl)ccc2[nH]c1=O (stereo partly shown) [Compound I-111]
40 | 100 to 1000 | 1000 to 10000 | CC(C)NC(=O)c1ccnc(N[C@@H](C)c2cc3cc(Cl)ccc3[nH]c2=O)n1 [Compound I-117]
41 | 100 to 1000 | 100 to 1000 | CC(C)CS(=O)(=O)Cc1ccnc(N[C@@H](C)c2cc3cc(Cl)ccc3[nH]c2=O)n1 [Compound I-121, (S)-6-Chloro-3-(1-(4-(isobutylsulfonylmethyl)pyrimidin-2-ylamino)ethyl)quinolin-2(1H)-one]
42 | 100 to 1000 | 1000 to 10000 | C[C@H](Nc1nccc(CS(C)(=O)=O)n1)c1cc2cc(Cl)ccc2[nH]c1=O [Compound I-133]
43 | 100 to 1000 | – | C[C@H](Nc1nccc(C2(S(C)(=O)=O)CC2)n1)c1cc2cc(Cl)ccc2[nH]c1=O [Compound I-136, (S)-6-Chloro-3-(1-(4-(1-(methylsulfonyl)cyclopropyl)pyrimidin-2-ylamino)ethyl)quinolin-2(1H)-one]
